Data: patent publication US5929063A, “Mercapto and seleno derivatives as inhibitors of nitric oxide synthase” (priority 1995, dated 1999)
“Also recorded” adds a separate entry of the source. Read-outs that look alike come from different tables or passages of the source.

How the values were obtained:
[1] = molecular target: T1, ecNOS (Bos taurus, UniProt P29473); assay: ecNOS activity from intimal scrapings of fresh bovine aortae (conversion of [3H]-L-arginine to [3H]-L-citrulline); format: biochemical
T1 construct: the intimal surface of fresh bovine aortae was scraped and homogenized; from tissue; host or cells: homogenate of intimal scrapings of fresh bovine aortae
Experimental: The intimal surface of fresh bovine aortae was scraped in the presence of homogenation buffer composed of 50 mM Tris-HCl, 0.1 mM ethylenediamine tetraacetic acid (EDTA) and 0.1 mM ethyleneglycol bis (beta-aminoethyl ether) (EGTA). Conversion of [^3 H]-L-arginine to [^3 H]-L-citrulline was measured in the homogenates as follows: cell homogenate (50 μl) was incubated in the presence of [^3 H]-L-arginine (10 μM, 5 kBq/tube), NADPH (2 mM), calmodulin (30 nM), tetrahydrobiopterin (5 μM) and calcium (2 mM) for 20 minutes at 37° C. in N-2-hydroxethyl piperazine-N-2-ethane sulfonic acid (HEPES) buffer (pH 7.5). Reactions were stopped by dilution with 1 ml of ice cold HEPES buffer (pH 5.5) containing EGTA (2 mM) and EDTA (2 mM). Reaction mixtures were applied to Dowex 50W (Na^+ form) columns and the eluted [^3 H]-L-citrulline activity was measured by scintillation counting. bNOS activity was measured using similar methods in homogenates of whole rat brains.
For a preparation rich in ecNOS, the intimal surface of fresh bovine aortae was scraped and homogenized. The homogenization buffer was composed of 50 mM tris-HCL, 0.1 mM EDTA, 0.1 mM EGTA and 1 mM phenylmethylsulfonyl chloride (pH 7.4). Cell suspensions were homogenized in the homogenization buffer on ice using a Tissue Tearor 985-370 homogenizer (BioSpec Products, Racine, Wis.). Conversion of [^3 H]-L-arginine to [^3 H]-L-citrulline was measured in the homogenates as described in Example 3 above.

[2] = test system: J774 macrophages; assay: Mitochondrial respiration (MTT reduction), cell viability of immunostimulated J774 macrophages; format: cell-based, mouse
Experimental: (§1) This example illustrates the effect of selected mercapto derivatives on endotoxin-induced nitrite formation in J774.2 macrophages and on IL-1 gamma-interferon induced nitrite formation in cultured rat arctic smooth muscle cells. J774 macrophage cell lines were obtained from the American Type Culture Collection (ATCC) and were grown using standard methods in Dulbecco's Modified Eagle Medium (DMEM) supplemented with 10% fetal bovine serum, glutamine, penicillin (10,000 U/l) and streptomycin (10,000 U/l). Rat aortic smooth muscle cells (RASM) from Wistar rats were isolated by enzymatic dissociation using standard methods. The cells were positively identified as smooth muscle by indirect immunofluorescent staining for a-actin, using mouse anti-α-actin antibody and anti-mouse IgG fluorescein isothiocyanate (FITC) conjugate. RASM cells were grown in T-75 tissue culture flasks in 50% F12 nutrient medium and 50% Dulbecco's Modified Eagle Medium supplemented with 10% fetal bovine serum, glutamine, penicillin (10,000 U/l) and streptomycin (10,000 U/l). Cells were grown in 96-well plates for measure of nitrite production and cell viability. J774 macrophages were treated with endotoxin (10 μg/ml) for 24 hours; smooth muscle cells were treated with IL-1 (100 U/ml) and gamma-interferon (50 U/ml) for 48 hours.
Mitochondrial respiration, an indicator of cell viability, was assessed by the mitochondrial-dependent reduction of MTT [3-(4,5-dimethylthiazol-2-yl)-2,5-diphenyltetrazolium bromide] to formazan. Cells in 96-well plates were incubated (37° C.) with MTT (0.2 mg/ml for 60 minutes). Culture medium was removed by aspiration and the cells solubilized in dimethylsulfoxide (DMSO) (100 μl). The extent of reduction of MTT to formazan within cells was quantitated by measurement of OD550 using a microplate reader. The calibration curve for the reduction of MTT to formazan was prepared in DMSO. Formazan production by cells was expressed as a percentage of the values obtained from untreated cells.

[3] = test system: J774 macrophages; assay: Nitrite production by immunostimulated J774 macrophages (endotoxin 24 h, Griess); format: cell-based, mouse; conditions: for EC50: Mus musculus, J774, endotoxin 10 μg/ml, 24 h (Table 1), read-out: EC50 for the inhibition of nitrite production by stimulated J774 macrophages
Experimental: as §1
Concentration of nitrite, the degradation product of NO in the culture medium, was determined by mixing equal volumes of medium with the Griess reagent (1% sulfanilamide/0.1% naphthylethylenediamine dihydrochloride/2.5% H3 PO4). The mixture was incubated for 10 minutes at room temperature to form the chromophore, then optical densities (OD) were determined at 550 nm (OD550). NaNO2 was used as the standard. Spectrophotometric measurements were performed in a dual-wavelength spectrophotometer.

[4] = molecular target: T2, bNOS (Rattus norvegicus, UniProt P29476); assay: bNOS activity in homogenates of whole rat brains; format: biochemical
T2 construct: bNOS activity was measured using similar methods in homogenates of whole rat brains; from tissue; host or cells: homogenate of whole rat brains
T2 sequence (P29476 whole entry): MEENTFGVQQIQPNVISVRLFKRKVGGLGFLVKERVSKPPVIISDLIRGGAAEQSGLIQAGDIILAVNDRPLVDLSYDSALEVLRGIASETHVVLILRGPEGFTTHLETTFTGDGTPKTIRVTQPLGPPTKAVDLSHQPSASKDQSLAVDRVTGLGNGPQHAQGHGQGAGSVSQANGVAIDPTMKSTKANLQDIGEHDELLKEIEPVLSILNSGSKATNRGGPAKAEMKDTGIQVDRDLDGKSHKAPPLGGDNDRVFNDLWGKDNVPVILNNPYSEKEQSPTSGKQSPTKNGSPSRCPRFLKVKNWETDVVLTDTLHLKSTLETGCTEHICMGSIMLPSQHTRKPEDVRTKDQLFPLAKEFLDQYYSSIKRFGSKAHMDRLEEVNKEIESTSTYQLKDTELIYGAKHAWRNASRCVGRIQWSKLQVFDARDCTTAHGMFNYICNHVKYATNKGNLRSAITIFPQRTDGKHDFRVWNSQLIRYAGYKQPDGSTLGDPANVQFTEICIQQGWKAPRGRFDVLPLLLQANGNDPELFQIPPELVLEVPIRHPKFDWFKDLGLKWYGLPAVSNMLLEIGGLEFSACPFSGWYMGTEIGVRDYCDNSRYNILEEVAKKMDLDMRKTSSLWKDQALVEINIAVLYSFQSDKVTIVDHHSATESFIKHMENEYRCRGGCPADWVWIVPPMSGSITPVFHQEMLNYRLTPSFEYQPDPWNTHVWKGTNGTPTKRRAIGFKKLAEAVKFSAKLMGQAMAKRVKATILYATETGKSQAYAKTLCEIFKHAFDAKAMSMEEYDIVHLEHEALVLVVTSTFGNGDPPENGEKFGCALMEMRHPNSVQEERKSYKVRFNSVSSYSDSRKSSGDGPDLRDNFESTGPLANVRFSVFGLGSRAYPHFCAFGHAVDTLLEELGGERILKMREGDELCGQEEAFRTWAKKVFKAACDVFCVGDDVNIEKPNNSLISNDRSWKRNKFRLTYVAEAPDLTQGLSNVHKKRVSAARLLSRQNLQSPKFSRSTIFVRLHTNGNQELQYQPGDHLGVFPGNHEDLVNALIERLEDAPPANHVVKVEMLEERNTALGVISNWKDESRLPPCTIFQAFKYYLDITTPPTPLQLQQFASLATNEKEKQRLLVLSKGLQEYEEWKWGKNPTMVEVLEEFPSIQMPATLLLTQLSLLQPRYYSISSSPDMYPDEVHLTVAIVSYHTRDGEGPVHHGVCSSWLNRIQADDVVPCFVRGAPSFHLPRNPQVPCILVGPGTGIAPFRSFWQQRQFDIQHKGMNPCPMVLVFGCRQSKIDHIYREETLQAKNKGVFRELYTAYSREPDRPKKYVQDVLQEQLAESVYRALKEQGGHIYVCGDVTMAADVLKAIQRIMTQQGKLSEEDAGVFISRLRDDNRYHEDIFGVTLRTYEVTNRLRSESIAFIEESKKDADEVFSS

[5] = molecular target: T3, iNOS (Rattus norvegicus, UniProt Q06518); assay: Inhibition of iNOS activity in tissue homogenates (Table 2); format: biochemical; parameters: bNOS in tissue homogenates; from tissue; host or cells: tissue homogenate; conditions: for EC50: iNOS (Table 2)
[6] = test system: J774.2 macrophages; assay: Nitrite production in immunostimulated J774.2 macrophages (E.coli LPS + murine gamma-interferon, 24 h); format: cell-based, mouse
Experimental: This example illustrates the effect of selected mercapto and seleno derivatives on nitrite production in J774.2 immunostimulated macrophages. The J774.2 mouse macrophage cell line was obtained from the ATCC and was cultured in DMEM with 4×10^-3 M L-glutamine and 10% fetal calf serum. Cells were cultured in 96-well plates with 200 μl culture medium until they reached 60-80% confluence. To induce INOS, fresh culture medium containing E.coli LPS (10 μg/ml) and murine gamma-interferon (IFN)(50 U/ml) was added. Nitrite accumulation in the cell culture medium in the absence or presence of various inhibitors was measured after 24 hours. Nitrite production, an indicator of NO synthesis, was measured in the supernatant of J774.2 macrophages by the Greiss reaction as described in Example 1 above.
This Example illustrates the effect of selected seleno derivatives on endotoxin-induced nitrite formation in J774.2 macrophages. The mouse macrophage cell line J774.2 obtained from the ATCC was cultured in DMEM with 4×10^-3 M L-glutamine and 10% fetal calf serum. Cells were cultured in 96-well plates with 200 μl culture medium until they reached 60-80% confluence. To induce iNOS, fresh culture medium containing E.coli LPS (10 μg/ml) and murine gamma-interferon (IFN)(50 U/ml) were added. Nitrite accumulation in the cell culture medium in the absence or presence of various inhibitors was measured after 24 hours. There was no detectable nitrite production by the J774.2 macrophages in the absence of immunostimulation. However, in the presence of IFN and LPS, nitrite concentration of the medium increased to 17±2 μM in the absence of inhibitor.

[7] = molecular target: T3, iNOS; assay: iNOS activity in lung homogenates from rats treated with bacterial endotoxin; format: biochemical; parameters: Lungs were obtained from rats which had been treated with bacterial endotoxin; from tissue; host or cells: lung homogenate from endotoxin-treated rats
Experimental: This Example illustrates the effect of selected mercapto and seleno derivatives on iNOS activity in lung homogenates prepared from rats treated with endotoxin. […] The homogenization buffer was composed of 50 mM tris-HCL, 0.1 mM EDTA, 0.1 mM EGTA and 1 mM phenylmethylsulfonyl chloride (pH 7.4). Cell suspensions were homogenized in the homogenization buffer on ice using a Tissue Tearor 985-370 homogenizer (BioSpec Products, Racine, Wis.).

[8] = ecNOS (Table 2), read-out: EC50 for inhibition of ecNOS activity in tissue homogenates
[9] = Mus musculus, J774.2, 24 h, read-out: NITRITE (% OF CONTROL)

SMILES: N=C(N)NCCCS [MPG, mercaptopropylguanidine]
- EC50 [1, 8]: 4 µM
- cellular viability ([2]; 1 mM): a slight reduction in viability was observed
- cellular viability ([2]; effective doses 1-100 μM): did not decrease cellular viability
- EC50 [3]: 15 µM
- EC50 [4]: 80 µM
- EC50 [5]: 7 µM

SMILES: CCSCCNC(=N)N [S-ethyl-MEG]
- inhibition of ecNOS activity, in words [1]: less potent on ecNOS
- EC50 [1, 8]: 850 µM
- EC50 [3]: 328 µM
- inhibition of nitrite production/accumulation, in words ([3]; immunostimulated J774 macrophages): inhibitors of nitrite accumulation
- EC50 [4]: 460 µM
- inhibition of iNOS activity, in words [5]: relative potent inhibitors of iNOS activity
- EC50 [5]: 30 µM

SMILES: CSCCNC(=N)N [S-methyl-MEG, S-methyl-mercaptoethylguanidine]
- EC50 [1, 8]: 43 µM
- EC50 [3]: 80 µM
- EC50 [4]: 8 µM
- EC50 [5]: 1.4 µM

SMILES: N=C(N)NCC[SeH] [SEG, selenoethylguanidine]
- EC50 [1]: 600 µM
- inhibition of ecNOS activity, in words [1]: inhibited ecNOS activity less strongly than the L-NMA
- inhibition of nitrite production, in words ([6]; IFN and LPS): dose-dependent inhibition of nitrite production; also recorded: dose-dependently inhibited nitrite production
- potency relative to reference compound L-NMA ([6]; IFN and LPS): higher than the reference compound L-NMA
- activity at 1000 µM ([6]; Mus musculus, J774.2, 24 h, inhibitor concentration -3.000 log M (Table 3), read-out: NITRITE (% OF CONTROL)): 0%
- activity at 100 µM ([6]; Mus musculus, J774.2, 24 h, inhibitor concentration -4.000 log M (Table 3), read-out: NITRITE (% OF CONTROL)): 7%
- activity at 100 µM ([6]; Mus musculus, J774.2, 24 h, inhibitor concentration -4 log M (Table 6), read-out: NITRITE (% OF CONTROL)): 14%
- activity at 31.6 µM ([6]; Mus musculus, J774.2, 24 h, inhibitor concentration -4.5 log M (Table 6), read-out: NITRITE (% OF CONTROL)): 28%
- activity at 10 µM ([6]; Mus musculus, J774.2, 24 h, inhibitor concentration -5.000 log M (Table 3), read-out: NITRITE (% OF CONTROL)): 50%
- activity at 10 µM ([6]; Mus musculus, J774.2, 24 h, inhibitor concentration -5 log M (Table 6), read-out: NITRITE (% OF CONTROL)): 50%
- activity at 3.16 µM ([6]; Mus musculus, J774.2, 24 h, inhibitor concentration -5.5 log M (Table 6), read-out: NITRITE (% OF CONTROL)): 94%
- activity at 1 µM ([6]; Mus musculus, J774.2, 24 h, inhibitor concentration -6.000 log M (Table 3), read-out: NITRITE (% OF CONTROL)): 90%
- activity at 1 µM ([6]; Mus musculus, J774.2, 24 h, inhibitor concentration -6 log M (Table 6), read-out: NITRITE (% OF CONTROL)): 100%
- EC50 ([6]; Mus musculus, J774.2, read-out: EC50, inhibition of nitrite production): 10 µM
- EC50 [7]: 10 µM
- selectivity for iNOS ([7]; iNOS vs ecNOS EC50 values): relative selectivity of SEG and GED for iNOS
- iNOS ACTIVITY (%) ([7]; inhibitor concentration -3.000 log M): 0.0000%
- iNOS ACTIVITY (%) ([7]; inhibitor concentration -4.000 log M): 15.000%
- iNOS ACTIVITY (%) ([7]; inhibitor concentration -5.000 log M): 56.000%
- iNOS ACTIVITY (%) ([7]; inhibitor concentration -6.000 log M): 86.000%
- iNOS ACTIVITY (%) ([7]; inhibitor concentration -7.000 log M): 100.000%
- inhibition of iNOS activity, in words ([7]; lung homogenates, rats treated with endotoxin): inhibits iNOS activity, more strongly

SMILES: N=C(N)NCCC[SeH] [SPG, selenopropylguanidine]
- inhibition of nitrite production, in words ([6]; IFN and LPS): dose-dependently inhibited nitrite production
- activity at 1 µM [6, 9]: 100%
- activity at 3.16 µM [6, 9]: 73%
- activity at 10 µM [6, 9]: 11%
- activity at 31.6 µM [6, 9]: 4%
- activity at 100 µM [6, 9]: 0%
